Laboratory results reported in patent publication EP0055702B1, “Antithrombotic treatment” (priority 1980, dated 1982).

Tests used:
[1] = test system: human platelet-rich plasma; assay: Platelet aggregometer, technique of Born, human platelet-rich plasma; format: cell-based; conditions: 1 millimole (mM), ADP, collagen, epinephrine and arachidonic acid
From the text: In order to evaluate an antithrombotic effect, it is preferable to withdraw samples of blood from a patient undergoing treatment and measure platelet aggregation. One method is described by Born in Nature 194, pp. 927-929 (1962) and may be used for this purpose, if desired.
That sodium bisulphite is a platelet antiagregatory agent is shown by using a platelet aggregometer based on the technique of Born (above cited).

human plasma [2] = assay: Prothrombin Time, Example 4; format: biochemical
From the text: (§1) The evaluation procedure used is that described in "Human Blood Coagulation, Haemostasis and Thrombosis", edited by Rosemary Biggs, published by Blackwell Scientific Publications, Oxford, England (2nd Edition), pages 670-705, 1976. […]

human plasma [3] = assay: Thrombin Time, Example 4; format: biochemical; conditions: Control 12.00
From the text: as §1

F VII = target: T1, F VII (Homo sapiens, UniProt P08709); assay: Factor VII assay, Example 4; format: biochemical; conditions: for F VII: Control 73
T1 construct: from tissue; host or cells: human plasma
T1 sequence (P08709 61-466): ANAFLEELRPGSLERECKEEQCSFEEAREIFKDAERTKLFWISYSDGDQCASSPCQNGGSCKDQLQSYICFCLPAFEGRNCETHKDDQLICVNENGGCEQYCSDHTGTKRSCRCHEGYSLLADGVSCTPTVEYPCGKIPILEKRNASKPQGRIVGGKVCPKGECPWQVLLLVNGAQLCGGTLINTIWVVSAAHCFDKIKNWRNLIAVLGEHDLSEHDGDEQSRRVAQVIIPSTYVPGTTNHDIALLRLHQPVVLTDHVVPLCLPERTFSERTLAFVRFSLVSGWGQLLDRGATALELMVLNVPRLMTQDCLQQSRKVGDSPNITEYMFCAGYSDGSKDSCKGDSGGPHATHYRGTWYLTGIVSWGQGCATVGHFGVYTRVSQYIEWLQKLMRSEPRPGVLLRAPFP
From the text: as §1

F XI = target: T2, F XI (Homo sapiens, UniProt P03951); assay: Factor XI assay, Example 4; format: biochemical; conditions: for F XI: Control 117
T2 construct: from tissue; host or cells: human plasma
T2 sequence (P03951 19-625): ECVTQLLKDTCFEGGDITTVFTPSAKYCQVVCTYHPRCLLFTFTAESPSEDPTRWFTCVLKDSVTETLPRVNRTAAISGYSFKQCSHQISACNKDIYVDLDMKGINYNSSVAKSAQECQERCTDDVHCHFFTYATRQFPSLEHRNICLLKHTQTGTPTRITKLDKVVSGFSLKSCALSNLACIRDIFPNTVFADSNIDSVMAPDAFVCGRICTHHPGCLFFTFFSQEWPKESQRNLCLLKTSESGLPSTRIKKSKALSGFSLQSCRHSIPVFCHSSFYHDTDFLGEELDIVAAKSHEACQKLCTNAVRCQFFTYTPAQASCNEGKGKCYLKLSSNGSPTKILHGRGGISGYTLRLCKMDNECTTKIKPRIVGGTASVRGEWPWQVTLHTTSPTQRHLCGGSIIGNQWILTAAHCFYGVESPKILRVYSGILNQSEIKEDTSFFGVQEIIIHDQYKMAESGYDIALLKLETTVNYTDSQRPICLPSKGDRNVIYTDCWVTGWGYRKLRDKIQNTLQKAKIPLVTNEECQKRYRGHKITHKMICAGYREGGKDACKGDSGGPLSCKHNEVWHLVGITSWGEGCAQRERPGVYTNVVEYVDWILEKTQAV
From the text: as §1

F XII = target: T3, F XII (Homo sapiens, UniProt P00748); assay: Factor XII assay, Example 4; format: biochemical; conditions: for F XII: Control 86
T3 construct: from tissue; host or cells: human plasma
T3 sequence (P00748 20-615): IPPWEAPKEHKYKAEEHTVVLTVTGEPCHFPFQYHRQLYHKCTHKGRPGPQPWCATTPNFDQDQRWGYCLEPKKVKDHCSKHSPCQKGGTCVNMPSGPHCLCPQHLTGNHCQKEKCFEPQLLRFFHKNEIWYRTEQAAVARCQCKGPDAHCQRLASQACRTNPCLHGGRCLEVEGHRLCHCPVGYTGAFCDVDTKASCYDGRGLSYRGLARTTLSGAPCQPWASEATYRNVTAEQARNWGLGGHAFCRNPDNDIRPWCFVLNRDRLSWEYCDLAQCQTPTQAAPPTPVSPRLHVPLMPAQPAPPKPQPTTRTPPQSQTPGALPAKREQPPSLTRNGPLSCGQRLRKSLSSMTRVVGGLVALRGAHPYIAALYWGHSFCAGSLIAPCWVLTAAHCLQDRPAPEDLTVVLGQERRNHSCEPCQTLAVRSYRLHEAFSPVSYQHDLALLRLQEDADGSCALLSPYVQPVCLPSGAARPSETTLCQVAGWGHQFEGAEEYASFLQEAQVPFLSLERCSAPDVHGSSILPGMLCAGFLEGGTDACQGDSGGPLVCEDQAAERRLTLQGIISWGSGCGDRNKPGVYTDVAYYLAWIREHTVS
From the text: as §1

patients = assay: Human use, case histories; format: in vivo
From the text: To evaluate the effect of sodium bisulphite in human use (this agent being known to be safe for human consumption), certain patients received this agent. The case history and observations are summarized individually below.
In each case, each patient was provided with a bottle of Solution D, unless otherwise noted, and was instructed to dose himself (or herself, as the case may be) from the bottle so provided at the rate of seven drops to be taken orally with each of his (her) three daily meals. When the contents of one such bottle were thus gradually consumed by an individual patient, another was provided.

blood = assay: Storage of human blood samples with added sodium bisulphite solution; conditions: about 4 cc blood plus about 10 drops of 10 weight percent solution; about 2) years at ambient temperatures
Description: Samples of about 4 cc each of blood were prepared. To each of these was added about 10 drops of a 10 weight percent solution of sodium bisulphite in distilled water. Each sample was then sealed into a glass vial.

[4] = Sodium bisulphite 0.01 mg/ml, solution D
[5] = Sodium bisulphite 0.05 mg/ml, solution D
[6] = Sodium bisulphite 0.1 mg/ml, solution D
[7] = Sodium bisulphite 0.5 mg/ml, solution D
[8] = Sodium bisulphite 1.0 mg/ml, solution D
[9] = Sodium bisulphite 5.0 mg/ml, solution D
[10] = chemical grade sodium bisulphite 0.01 mg/ml
[11] = chemical grade sodium bisulphite 0.05 mg/ml
[12] = chemical grade sodium bisulphite 0.1 mg/ml
[13] = chemical grade sodium bisulphite 0.5 mg/ml
[14] = chemical grade sodium bisulphite 1.0 mg/ml
[15] = chemical grade sodium bisulphite 5.0 mg/ml

For Sodium bisulphite, the platelet aggregation [1] was “abolishes platelet aggregation”, the PT (human plasma [2]; Sodium bisulphite 0.01 mg/ml, solution D, Control 34.67) was 33.37 s and the PT (human plasma [2]; Sodium bisulphite 0.05 mg/ml, solution D, Control 34.67) was 34.00 s. The PT (human plasma [2]; Sodium bisulphite 0.1 mg/ml, solution D, Control 34.67) was 34.85 s, the PT (human plasma [2]; Sodium bisulphite 0.5 mg/ml, solution D, Control 34.67) was 42.73 s and the PT (human plasma [2]; Sodium bisulphite 1.0 mg/ml, solution D, Control 34.67) was 85.33 s. The PT (human plasma [2]; Sodium bisulphite 5.0 mg/ml, solution D, Control 34.67) was over 150 s, the PT (human plasma [2]; chemical grade sodium bisulphite 0.01 mg/ml, Control 12.20) was 12.30 s and the PT (human plasma [2]; chemical grade sodium bisulphite 0.05 mg/ml, Control 12.20) was 12.47 s. It also gave a PT (human plasma [2]; chemical grade sodium bisulphite 0.1 mg/ml, Control 12.20) of 12.90 s, a PT (human plasma [2]; chemical grade sodium bisulphite 0.5 mg/ml, Control 12.20) of 16.10 s and a PT (human plasma [2]; chemical grade sodium bisulphite 1.0 mg/ml, Control 12.20) of 22.38 s. For the same substance, the PT (human plasma [2]; chemical grade sodium bisulphite 5.0 mg/ml, Control 12.20) was over 150 s, the TT (human plasma [3]; [4]) was 12.07 s and the TT (human plasma [3]; [5]) was 12.10 s. It also gave a TT (human plasma [3]; [6]) of 12.00 s, a TT (human plasma [3]; [7]) of 13.97 s and a TT (human plasma [3]; [8]) of 16.08 s. The TT (human plasma [3]; [9]) was 34.3 s, the TT (human plasma [3]; [10]) was 12.20 s and the TT (human plasma [3]; [11]) was 12.30 s. It also gave a TT (human plasma [3]; [12]) of 12.15 s, a TT (human plasma [3]; [13]) of 14.53 s and a TT (human plasma [3]; [14]) of 16.23 s. For the same substance, the TT (human plasma [3]; [15]) was 35.5 s, the “effect on Factor VII” value (F VII; 0.5 mg per ml, human plasma) was “significant inhibitory effect” and the “F VII” value (F VII; [4]) was 67%. The “F VII” value (F VII; [5]) was 57%, the “F VII” value (F VII; [6]) was 51% and the “F VII” value (F VII; [7]) was 23%. For the same substance, the “F VII” value (F VII; [8]) was 8%, the “F VII” value (F VII; [9]) was 1% and the “F VII” value (F VII; [10]) was 62. The “F VII” value (F VII; [11]) was 63, the “F VII” value (F VII; [12]) was 53 and the “F VII” value (F VII; [13]) was 17. For the same substance, the “F VII” value (F VII; [14]) was 7, the “F VII” value (F VII; [15]) was 2 and the “effect on Factor XI” value (F XI; 0.5 mg per ml, human plasma) was “significant inhibitory effect”. For the same substance, the “F XI” value (F XI; [4]) was 98%, the “F XI” value (F XI; [5]) was 81% and the “F XI” value (F XI; [6]) was 58%. The “F XI” value (F XI; [7]) was 27%, the “F XI” value (F XI; [8]) was 4% and the “F XI” value (F XI; [9]) was under 1%. The “F XI” value (F XI; [10]) was 83, the “F XI” value (F XI; [11]) was 82 and the “F XI” value (F XI; [12]) was 55. For the same substance, the “F XI” value (F XI; [13]) was 24, the “F XI” value (F XI; [14]) was 2 and the “F XI” value (F XI; [15]) was under 1. For the same substance, the “effect on Factor XII” value (F XII; 0.5 mg per ml, human plasma) was “significant inhibitory effect”, the “F XII” value (F XII; [4]) was 94% and the “F XII” value (F XII; [5]) was 87%. The “F XII” value (F XII; [6]) was 79%, the “F XII” value (F XII; [7]) was 17% and the “F XII” value (F XII; [8]) was 3%. The “F XII” value (F XII; [9]) was under 1%, the “F XII” value (F XII; [10]) was 104 and the “F XII” value (F XII; [11]) was 102. For the same substance, the “F XII” value (F XII; [12]) was 75, the “F XII” value (F XII; [13]) was 25 and the “F XII” value (F XII; [14]) was 9. The “F XII” value (F XII; [15]) was under 1, the “Case IV: blood cholesterol value” (patients; after about 5 years, before between 200 and 220 mg %) was “about 144 mg %” and the “Case IV: hypertension, arthritis, arrhythmia, haemorrhoids, dyspepsia, cyanotic fingers and toes, malaise (except diabetes)” value (patients; person, Solutions A, B, C or D orally, within 2-3 months) was “improved”. The “coagulation of stored blood samples” value (blood) was “have not coagulated”.
